Results taken from US11913882B2, “Determination of the supramolecular organization of encapsulated molecules by luminescence lifetime analysis” (SCUOLA NORMALE SUPERIORE, priority 2020, dated 2024).

Test: Fluorescence lifetime analysis (phasor-FLIM) of DOX organization states and Doxoves®
Assay type: physicochemical
From the text: The procedure was applied to Doxoves® as follows: • 1) Based on previous knowledge, at least three different supramolecular organizations of DOX molecules are supposed to contribute to the overall nature of Doxoves® nanocarriers: crystallized DOX, free DOX, and DOX eventually associated with the nanocarrier surface, i.e. with lipids. These three forms are defined here as standards. • 2) The three standards identified at step 1 are obtained and measured. As a preliminary step, each standard is produced and dissolved in a buffer that is the same as that of the test substance. In the present case, manufacturer's indications were followed to produce the correct buffer composition. In general, substances having an impact on lifetime analysis of the test substance, e.g. Doxoves®, shall be also present in the standard substances. First, the phasor signature of crystalized DOX and free-in-solution DOX are measured: two mono-exponential lifetimes are obtained: 0.2 ns for the crystal and 1 ns for free DOX, respectively. […] Then, by spin-coating simil-Doxoves® nanoparticles on a glass surface. This procedure destroys mechanically the liposomal particles and recovers the liposomal membranes on the glass. […] It is important to note that lifetime measuring conditions, e.g. temperature, pH etc., shall be the same for measures on the test substance and measures on the standard substances. • 5) Doxoves® lifetime data are analysed by the phasor approach. In more detail, the phasor is calculated by using a dedicated routine in the SimFCS software (Laboratory for Fluorescence Dynamics, University of California, Irvine). […] Simple algebraic rules are adopted to extract quantitatively the relative contribution (fractional intensity) of each standard (by a dedicated routine in SimFCS software). • It may still be under question whether there may be more than three organization states, e.g. four defining a trapezoidal shape within the universal circle and circumscribing the location of the test substance lifetime decay within the universal circle. A final control experiment was thus performed to corroborate the hypothesis that only three standard components (and NOT more than three) contribute to the overall organization of encapsulated DOX. In brief, the lifetime of simil-Doxoves® in solution is measured. If only three components contribute to Doxoves® organization, simil-Doxoves® is expected to be a linear combination of just free DOX and DOX associated to nanocarrier lipids, thus lying along the segment that connects these two states.

[1] = within tested nanoparticles, FIG. 4, phasor plot triangle

fluorescence lifetime of free DOX in solution, mono-exponential (pure standard, free in water/buffer, phasor approach): 1 ns
fluorescence lifetime of crystalized DOX (purified rod-shaped crystals), mono-exponential (pure standard, excitation 470 nm, emission 500-650 nm, phasor approach): 0.2 ns
fractional intensity of DOX conjugate with the lipids [1]: 46%
fractional intensity of DOX organized into nanorod crystals [1]: 36%
fractional intensity of free DOX [1]: 18%
SMILES: COc1cccc2c1C(=O)c1c(O)c3c(c(O)c1C2=O)C[C@@](O)(C(=O)CO)C[C@@H]3O[C@H]1C[C@H](N)[C@H](O)[C@H](C)O1 [DOX, doxorubicin]
